Results: ChEMBL document CHEMBL1153858, “Application of phosphonyl carbanions to highly regioselective synthesis of some diazaphospholes and pyrazolinyl phosphonates” (2009)

Legend:
Assay type in all cases: functional
[1] = test system: Penicillium chrysogenum; experiment: Antimicrobial activity against Penicillium chrysogenum assessed as activity index
[2] = test system: Staphylococcus aureus; experiment: Antimicrobial activity against Staphylococcus aureus assessed as activity index
[3] = test system: Aspergillus flavus; experiment: Antimicrobial activity against Aspergillus flavus
[4] = test system: Staphylococcus aureus; experiment: Antimicrobial activity against Staphylococcus aureus
[5] = test system: Aspergillus flavus; experiment: Antimicrobial activity against Aspergillus flavus assessed as activity index
[6] = test system: Aspergillus niger; experiment: Antimicrobial activity against Aspergillus niger
[7] = test system: Agrobacterium tumefaciens; experiment: Antimicrobial activity against Bacillus tumefaciens
[8] = test system: Penicillium chrysogenum; experiment: Antimicrobial activity against Penicillium chrysogenum
[9] = test system: Klebsiella pneumoniae; experiment: Antimicrobial activity against Klebsiella pneumoniae assessed as activity index
[10] = test system: Klebsiella pneumoniae; experiment: Antimicrobial activity against Klebsiella pneumoniae
[11] = test system: Agrobacterium tumefaciens; experiment: Antimicrobial activity against Bacillus tumefaciens assessed as activity index
[12] = test system: Aspergillus niger; experiment: Antimicrobial activity against Aspergillus niger assessed as activity index

| Structure (SMILES) | Activity [1] | Activity [2] | Diameter of inhibition zone [3] | Diameter of inhibition zone [4] | Activity [5] | Diameter of inhibition zone [6] | Diameter of inhibition zone [7] | Diameter of inhibition zone [8] | Activity [9] | Diameter of inhibition zone [10] | Activity [11] | Activity [12] |
| --- | --- | --- | --- | --- | --- | --- | --- | --- | --- | --- | --- | --- |
| CCOP1(=O)C(C(=O)OC)=NN(CC)C12C(=O)c1ccccc1C2=O (stereo unspecified) | 1.31 | 0.85 | 9 mm | 9 mm | 1.12 | 8.4 mm | 12.2 mm | 7.9 mm | 1.04 | 10.3 mm | 0.9 | 1.18 |
| CCOP1(=O)C(C#N)=NN(CC)C12C(=O)c1ccccc1C2=O (stereo unspecified) | 1 | 0.92 | 11.3 mm | 10 mm | 1.15 | 9 mm | 10 mm | 8 mm | 1.16 | 12 mm | 0.89 | 1.14 |
| CCOC(=O)C1=NN(CC)C2(C(=O)c3ccccc3C2=O)P1(=O)OCC (stereo unspecified) | 1.42 | 0.88 | 9.6 mm | 8.5 mm | 1.35 | 7.4 mm | 11 mm | 7.8 mm | 0.8 | 11.3 mm | 0.78 | 1.23 |
| CCn1nc(SC)oc2c3ccccc3c(=O)c1=2 | 0.54 | 0.26 | 6.2 mm | 5.9 mm | 0.41 | 4.9 mm | 5.6 mm | 5.6 mm | 0.32 | 5.1 mm | 0.55 | 1.31 |
| CCOP(=O)(OCC)C1=NN(CC)C2(C1=O)C(=O)c1ccccc1C2=O | 1.06 | 0.83 | 7.4 mm | 7.6 mm | 0.88 | 6.1 mm | 7.6 mm | 5.9 mm | 0.63 | 8.2 mm | 0.57 | 0.73 |
| CCOP(=O)(OCC)C1=NN(CC)C2(C1)C(=O)c1ccccc1C2=O | 0.71 | 0.61 | 5 mm | 8 mm | 0.62 | 4.3 mm | 9.8 mm | 9 mm | 1 | 7.6 mm | 0.84 | 0.66 |
| CCOP1(=O)C(SC)=NN(CC)C12C(=O)c1ccccc1C2=O (stereo unspecified) | 1.32 | 1.16 | 9.8 mm | 12.8 mm | 1.36 | 8 mm | 12.6 mm | 9.2 mm | 0.81 | 10.5 mm | 0.92 | 1.14 |
| CCOP(=O)(OCC)C1=C(N)C2(N=N1)C(=O)c1ccccc1C2=O | 0.71 | 52 | 6.3 mm | 7.2 mm | 0.78 | 5.4 mm | 8.4 mm | 5.2 mm | 0.47 | 6 mm | 0.75 | 0.73 |
